Measured values from patent publication US20110152267A1, “Compositions and Methods for Treating Hyperproliferative Disorders” (Texas Tech University System, priority 2009, published 2011).

Key:
Type in all cases: cell-based, human
[1] = system: RPMI-8226 Multiple Myeloma cell line; test: DIMSCAN cytotoxicity, fenretinide + L-threo-sphinganines 3:1 (Example B2); settings: 96 h
Procedure: (§1) Cytotoxicity Assay—Once again, cytotoxicity is determined using the DIMSCAN assay system (R. Proffitt et al., Cytometry 24, 204-213 (1996); T. Frgala et al., Mol Cancer Ther. 6:886-97, 2007). The system employs digital imaging microscopy to quantify viable cells, which selectively accumulate fluorescein diacetate to become brightly fluorescent. The system is capable of measuring cytotoxicity over a 4-5 log dynamic range by quenching the residual fluorescence of dead and dying cells with eosin Y and quantifying the total fluorescence of viable cells using digital thresholding. Measured fluorescence is directly proportionate to the number of viable cells. A comparison of the total fluorescence of a drug-treated cell population to the fluorescence of a similar number of untreated cells yields a survival fraction. In brief, 2000 to 10,000 cells/well (depending on size and growth rates) are replicate plated into 60 wells of a 96-well tissue culture plate in 0.1 mL of whole medium and allowed to attach overnight. Drug(s) are then added in 0.05 mL of whole medium to the final concentrations indicated. Drugs (fenretinide, and various chain length L-threo-sphinganines) were tested both as single agents and in a 3:1 ratio of fenretinide:sphinganine. C18-L-threo-sphinganine, or “safingol,” was also tested and results shown for reference. There are 12 wells treated per drug concentration. Twelve wells receive drug vehicle-only to the appropriate final concentration and serve as controls for the plate. Cells are incubated for 96 hours at 37° C. in ambient air with 5% CO2. Fluorescein diacetate is then added to each well in 0.05 mL media to a final concentration of 8 microgram/mL. Cells are incubated for a further 15 minutes at 37° C. and 0.03 mL of 0.5% eosin Y is added to each well. Total fluorescence of viable cells is then measured by digital imaging microscopy. Results were graphed as the ratio of the fluoresecence of drug-treated wells to non-drug treated control wells (i.e., Survival Fraction). All tests were performed at least twice. Representative results are shown.
(§2) The Combination Index (CI) is a term to describe mathematical modeling of the pharmacologic effects on cytotoxicity (cell death) of two drugs in combination based. Cytotoxic “synergy” is defined as a cell death affect which is greater than would be expected from a simple product of the single agent cytotoxicities alone (i.e. an “additive” effect). By Chou-Talalay analysis, a CI<0.9 on a Fraction Affected (“Fa”, i.e. fraction of cells killed) indicates synergy, with smaller numbers indicating greater synergy; a CI of 0.9-1.1 signifies an additive or near-additive effect; and a CI>1.1 means the drug combination is antagonistic.
Fenretinide and L-threo-sphinganines tested in human Multiple Myeloma (a cancer of the blood and bone marrow) cell line, RPMI-8226.

[2] = system: OE-19 esophageal adenocarcinoma cell line; test: DIMSCAN cytotoxicity, fenretinide + L-threo-sphinganines 3:1 (Example B19)
Procedure: as §1, §2
(§3) Fenretinide and L-threo-sphinganines tested in human esophageal adenocarcinoma (esophagus cancer) cell lines, OE-19 and OE-33.

[3] = system: OE-33 esophageal adenocarcinoma cell line; test: as above
Procedure: as §1, §2, §3

[4] = system: A-172 Glioblastoma multiforme cell line; test: DIMSCAN cytotoxicity, fenretinide + L-threo-sphinganines 3:1 (Example B4); parameters: key to CI (Combination Index): Chou-Talalay CI: <0.9 synergy, 0.9-1.1 additive, >1.1 antagonism; settings: 96 h
Procedure: as §1, §2
Fenretinide and L-threo-sphinganines tested in human Glioblastoma multiforme (brain cancer) cell line, A-172.

[5] = system: A-549 lung adenocarcinoma cell line; test: DIMSCAN cytotoxicity, fenretinide + L-threo-sphinganines 3:1 (Example B13); settings: 96 h
Procedure: as §1, §2
Fenretinide and L-threo-sphinganines tested in human lung adenocarcinoma (lung cancer) cell line, A-549.

[6] = system: OVCAR-8 ovarian adenocarcinoma cell line; test: DIMSCAN cytotoxicity, fenretinide + L-threo-sphinganines 3:1 (Example B15); parameters: key to CI (Combination Index): Chou-Talalay CI: <0.9 synergy, 0.9-1.1 additive, >1.1 antagonism; settings: 96 h
Procedure: as §1, §2
Fenretinide and L-threo-sphinganines tested in human ovarian adenocarcinoma (ovarian cancer) cell line, OVCAR-8.

[7] = system: SJ-G2 Glioblastoma cell line; test: DIMSCAN cytotoxicity, fenretinide + L-threo-sphinganines 3:1 (Example B8); settings: 96 h
Procedure: as §1, §2
Fenretinide and L-threo-sphinganines tested in human Glioblastoma (brain cancer) cell line, SJ-G2.

[8] = 4-HPR 1.5 μM + L-threo-sphinganine 0.5 μM
[9] = 4-HPR 3 μM + L-threo-sphinganine 1 μM
[10] = 4-HPR 6 μM + L-threo-sphinganine 2 μM
[11] = 4-HPR 9 μM + L-threo-sphinganine 3 μM

SMILES: CCCCCCCCC[C@H](O)[C@@H](N)CO [C12]
- CI (Combination Index) [1, 8]: 0.8
- Fa (fraction affected) [1, 8]: 0.6
- CI (Combination Index) [1, 9]: 1.0
- Fa (fraction affected) [1, 9]: 0.757
- CI (Combination Index) [1, 10]: 0.7
- Fa (fraction affected) [1, 10]: 0.96
- CI (Combination Index) [1, 11]: 0.5
- Fa (fraction affected) [1, 11]: 0.988
- CI [2, 8]: 1.4
- Fa [2, 8]: 0.345
- CI [2, 9]: 2.9
- Fa [2, 9]: 0.325
- CI [2, 10]: 5.5
- Fa [2, 10]: 0.506
- CI [2, 11]: >>1
- Fa [2, 11]: 0.632
- CI [3, 8]: 1.0
- Fa [3, 8]: 0.376
- CI [3, 9]: 1.0
- Fa [3, 9]: 0.618
- CI [3, 10]: 1.3
- Fa [3, 10]: 0.758
- CI [3, 11]: 1.1
- Fa [3, 11]: 0.925
- CI (Combination Index) [4, 8]: 6.1
- Fa (fraction affected) [4, 8]: 0.024
- CI (Combination Index) [4, 9]: 4.4
- Fa (fraction affected) [4, 9]: 0.065
- CI (Combination Index) [4, 10]: 0.4
- Fa (fraction affected) [4, 10]: 0.849
- CI (Combination Index) [4, 11]: 0.2
- Fa (fraction affected) [4, 11]: 0.981
- CI (Combination Index) [5, 8]: 2.5
- Fa (fraction affected) [5, 8]: 0.01
- CI (Combination Index) [5, 9]: 1.0
- Fa (fraction affected) [5, 9]: 0.010
- CI (Combination Index) [5, 10]: 1.0
- Fa (fraction affected) [5, 10]: 0.010
- CI (Combination Index) [5, 11]: 1.0
- Fa (fraction affected) [5, 11]: 0.020
- CI (Combination Index) [6, 8]: 0.3
- Fa (fraction affected) [6, 8]: 0.382
- CI (Combination Index) [6, 9]: 0.5
- Fa (fraction affected) [6, 9]: 0.445
- CI (Combination Index) [6, 10]: 0.6
- Fa (fraction affected) [6, 10]: 0.634
- CI (Combination Index) [6, 11]: 0.8
- Fa (fraction affected) [6, 11]: 0.704
- CI (Combination Index) [7, 8]: 0.8
- Fa (fraction affected) [7, 8]: 0.199
- CI (Combination Index) [7, 9]: 0.7
- Fa (fraction affected) [7, 9]: 0.530
- CI (Combination Index) [7, 10]: 0.8
- Fa (fraction affected) [7, 10]: 0.764
- CI (Combination Index) [7, 11]: 0.6
- Fa (fraction affected) [7, 11]: 0.931

SMILES: CCCCCCCCCCCCCC[C@H](O)[C@@H](N)CO [C17, (2S,3S)-2-amino-1,3-heptadecanediol]
- CI (Combination Index) [1, 8]: 1.12
- Fa (fraction affected) [1, 8]: 0.549
- CI (Combination Index) [1, 9]: 1.00
- Fa (fraction affected) [1, 9]: 0.859
- CI (Combination Index) [1, 10]: 0.43
- Fa (fraction affected) [1, 10]: 0.993
- CI (Combination Index) [1, 11]: >0.1
- Fa (fraction affected) [1, 11]: 1.000
- CI [2, 8]: 0.3
- Fa [2, 8]: 0.314
- CI [2, 9]: 0.3
- Fa [2, 9]: 0.462
- CI [2, 10]: 0.2
- Fa [2, 10]: 0.689
- CI [2, 11]: 0.2
- Fa [2, 11]: 0.743
- CI [3, 8]: 1.5
- Fa [3, 8]: 0.376
- CI [3, 9]: 1.1
- Fa [3, 9]: 0.767
- CI [3, 10]: 0.8
- Fa [3, 10]: 0.945
- CI [3, 11]: 0.4
- Fa [3, 11]: 0.991
- CI (Combination Index) [4, 8]: 1.4
- Fa (fraction affected) [4, 8]: 0.232
- CI (Combination Index) [4, 9]: 1.4
- Fa (fraction affected) [4, 9]: 0.529
- CI (Combination Index) [4, 10]: 0.2
- Fa (fraction affected) [4, 10]: 0.996
- CI (Combination Index) [4, 11]: >0.1
- Fa (fraction affected) [4, 11]: 1.000
- CI (Combination Index) [5, 8]: 1.6
- Fa (fraction affected) [5, 8]: 0.01
- CI (Combination Index) [5, 9]: 1.5
- Fa (fraction affected) [5, 9]: 0.010
- CI (Combination Index) [5, 10]: 1.0
- Fa (fraction affected) [5, 10]: 0.010
- CI (Combination Index) [5, 11]: 1.1
- Fa (fraction affected) [5, 11]: 0.010
- CI (Combination Index) [6, 8]: 0.2
- Fa (fraction affected) [6, 8]: 0.467
- CI (Combination Index) [6, 9]: 0.4
- Fa (fraction affected) [6, 9]: 0.519
- CI (Combination Index) [6, 10]: 0.5
- Fa (fraction affected) [6, 10]: 0.676
- CI (Combination Index) [6, 11]: 0.4
- Fa (fraction affected) [6, 11]: 0.903
- CI (Combination Index) [7, 8]: 0.6
- Fa (fraction affected) [7, 8]: 0.462
- CI (Combination Index) [7, 9]: 0.4
- Fa (fraction affected) [7, 9]: 0.874
- CI (Combination Index) [7, 10]: 0.6
- Fa (fraction affected) [7, 10]: 0.928
- CI (Combination Index) [7, 11]: 0.8
- Fa (fraction affected) [7, 11]: 0.941
